The term Ki denotes the dissociation constant of the complex between target and ligand, obtained from inhibition or displacement. By inhibition is commonly meant the relative decrease from the control value, in per cent. Broadly, the IC50 is the concentration needed to halve the response being measured.

Assay [1] addresses T1, Glutathionylspermidine synthase (Crithidia fasciculata, UniProt P90518).
T1 sequence (P90518 whole entry): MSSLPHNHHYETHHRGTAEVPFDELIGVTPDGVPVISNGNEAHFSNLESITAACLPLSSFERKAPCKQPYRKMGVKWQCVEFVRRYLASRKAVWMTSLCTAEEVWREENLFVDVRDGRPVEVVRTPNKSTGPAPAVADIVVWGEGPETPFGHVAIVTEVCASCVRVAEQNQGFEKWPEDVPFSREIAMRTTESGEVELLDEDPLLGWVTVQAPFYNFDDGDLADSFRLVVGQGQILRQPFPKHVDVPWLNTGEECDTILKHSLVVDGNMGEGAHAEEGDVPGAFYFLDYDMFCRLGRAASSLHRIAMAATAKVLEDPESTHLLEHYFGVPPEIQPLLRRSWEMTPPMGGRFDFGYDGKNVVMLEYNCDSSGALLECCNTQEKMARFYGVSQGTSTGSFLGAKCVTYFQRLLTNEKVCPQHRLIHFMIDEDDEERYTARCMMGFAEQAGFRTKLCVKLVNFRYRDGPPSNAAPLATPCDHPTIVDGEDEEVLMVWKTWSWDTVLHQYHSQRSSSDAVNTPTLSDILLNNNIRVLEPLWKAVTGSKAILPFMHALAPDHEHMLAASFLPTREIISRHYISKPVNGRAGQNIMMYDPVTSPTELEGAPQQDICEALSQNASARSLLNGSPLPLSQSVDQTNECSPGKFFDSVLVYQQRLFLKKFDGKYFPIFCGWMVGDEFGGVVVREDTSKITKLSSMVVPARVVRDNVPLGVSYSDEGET
In words: Inhibitory constant against glutathionylspermidine synthetase (GspS) in Crithidia fasciculata.

In assay [2] the target is T2, Glutathionylspermidine synthase (Crithidia fasciculata) (UniProt P90518).
T2 sequence (whole entry): T1 sequence (P90518 whole entry)
In words: (§1) Tested against glutathionylspermidine synthetase (GspS) in Crithidia fasciculata. Details: concentration or dose not given beside the values. The note with it: concentration not given here.

In assay [3] the target is T1, Glutathionylspermidine synthase. Described as §1.

Where “and” joins values, the source holds several entries; their conditions need not be identical. Equal values may be shown once. Numbered stars: 1 amine (or outer) side, 2 acyl side, 3 side chain; on linkers, the order of the positions; unused ones are H or OH. Square brackets hold non-standard residues; d marks the D form. Peptide text beside a SMILES is read from it. γGlu = O=C(O)[C@H](CCC(=O)[*:2])N[*:1]; Orn = NCCC[C@H](N)C(=O)O; Dab = NCC[C@H](N)C(=O)O; Nva = CCC[C@H](N)C(=O)O; Dap = NC[C@H](N)C(=O)O

`CC(C)C[C@H](NC(=O)CC[C@H](N)C(=O)O)C(=O)N[C@@H](CCCCNCCCN)C(=O)O`: the Ki in assay [1] was 33 µM and 59 µM. Moreover, the inhibition in assay [2] is 93%. Moreover, the IC50 in assay [3] came to 23 µM.
On to `CC(C)C[C@H](NC(=O)CC[C@H](N)C(=O)O)C(=O)N[C@@H](CCCCNCCCCN)C(=O)O`, for which the Ki in assay [1] is 32 µM and 86 µM. In assay [2], this compound yielded an inhibition of 94%. In assay [3], the IC50 turned out to be 27.9 µM.
In turn, `CC(C)C[C@H](NC(=O)CC[C@H](NC(=O)OC(C)(C)C)C(=O)OC(C)(C)C)C(=O)N[C@@H](CCCCNCCCNC(=O)OC(C)(C)C)C(=O)O` yielded an inhibition in assay [2] of 62%. The same compound showed an IC50 in assay [3] of 157 µM.
For the compound `CC(C)C[C@H](NC(=O)[C@H](CC(C)C)NC(=O)CC[C@H](N)C(=O)O)C(=O)O`, the inhibition in assay [2] was 59%. In assay [3], the IC50 came out at 365 µM.
In the case of `CC(C)C[C@H](NC(=O)CC[C@H](N)C(=O)O)C(=O)N[C@@H](CCCN=C(N)N)C(=O)O`, the Ki in assay [1] was 6.4 µM and 17 µM. Moreover, the inhibition in assay [2] came to 95%. Also, in assay [3], the IC50 is 9.4 µM.
Regarding `CCCC[C@H](NC(=O)[C@H](CC(C)C)NC(=O)CC[C@H](N)C(=O)O)C(=O)O`, the inhibition in assay [2] is 53%.
`CC(C)C[C@H](NC(=O)CC[C@H](N)C(=O)O)C(=O)N[C@@H](C)C(=O)O` (γGlu-Leu-Ala-OH) gave an inhibition in assay [2] of 87%. In assay [3], it took 90 µM to reach half-maximal inhibition (IC50).
In assay [2], `CC(C)C[C@H](NC(=O)CC[C@H](N)C(=O)O)C(=O)N[C@@H](CC(N)=O)C(=O)O` (γGlu-Leu-Asn-OH) showed an inhibition of 68%. In addition, in assay [3], the IC50 came out at 142 µM.
In the case of `CC(C)C[C@H](NC(=O)CC[C@H](N)C(=O)O)C(=O)N[C@@H](CC(=O)O)C(=O)O` (γGlu-Leu-Asp-OH), the inhibition in assay [2] worked out at 69%. Besides, the IC50 in assay [3] was determined as 156 µM.
For `CC(C)C[C@H](NC(=O)CC[C@H](N)C(=O)O)C(=O)N[C@@H](CCC(=O)O)C(=O)O` (γGlu-Leu-Glu-OH), in that order: 60% and 227 µM.
Turning to `CC(C)C[C@H](NC(=O)CC[C@H](N)C(=O)O)C(=O)NCC(=O)O` (γGlu-Leu-Gly-OH), the inhibition in assay [2] worked out at 0%.
Take `CC(C)C[C@H](NC(=O)CC[C@H](N)C(=O)O)C(=O)N[C@@H](CCCCN)C(=O)O` (γGlu-Leu-Lys-OH): the Ki in assay [1] is 27 µM and 48 µM. In assay [2], the inhibition came to 93%. Half-maximal inhibition in assay [3] (IC50) was put at 18 µM.
As for `CC(C)C[C@H](NC(=O)CC[C@H](N)C(=O)O)C(=O)N[C@@H](CO)C(=O)O` (γGlu-Leu-Ser-OH), the Ki in assay [1] is 14 µM and 25 µM. In assay [2], this compound returned an inhibition of 94%. Besides, half-maximal inhibition in assay [3] (IC50) required 11.7 µM.
Turning to `CC(C)C[C@H](NC(=O)CC[C@H](N)C(=O)O)C(=O)N[C@@H](CCN)C(=O)O` (γGlu-Leu-[Dab]-OH), the Ki in assay [1] was 10.4 µM and 24 µM. Also, in assay [2], the inhibition was found to be 95%. The IC50 in assay [3] was 13.7 µM.
Regarding `CC(C)C[C@H](NC(=O)CC[C@H](N)C(=O)O)C(=O)N[C@@H](CN)C(=O)O` (γGlu-Leu-[Dap]-OH), the Ki in assay [1] was 7.2 µM and 21 µM. This compound came in with an inhibition in assay [2] of 97%. Moreover, in assay [3], the IC50 came out at 9.1 µM.
The compound `CCC[C@H](NC(=O)[C@H](CC(C)C)NC(=O)CC[C@H](N)C(=O)O)C(=O)O` (γGlu-Leu-[Nva]-OH) showed an inhibition in assay [2] of 70%. The same compound came in with an IC50 in assay [3] of 145 µM.
As to `CC(C)C[C@H](NC(=O)CC[C@H](N)C(=O)O)C(=O)N[C@@H](CCCN)C(=O)O` (γGlu-Leu-[Orn]-OH), the Ki in assay [1] was 10 µM and 39 µM. Also, the inhibition in assay [2] was 95%. Moreover, in assay [3], the IC50 was 10.3 µM.

Values taken from ChEMBL document CHEMBL1135343, “Glutathione-like tripeptides as inhibitors of glutathionylspermidine synthetase. Part 2: substitution of the glycine part” (Bioorg Med Chem Lett, 2002).
